Results taken from patent publication US8067382B2, “Anthelmintic composition” (Merial Limited, priority 2002, dated 2011).

Legend:
liver flukes = conditions: background statement; cited from earlier work
[1] = Stability trial of Formulation 1 stored at ambient for 11 months, HPLC assay of actives; assay type: physicochemical
Description: A stability trial was conducted to ensure that the triclabendazole solution was stable. A formulation made as described in example 1 (“Formulation 1”) was stored at ambient for 11 months. At the conclusion of the storage period samples were tested for total abamectin and triclabendazole levels. [table]

[2] = background statement; cited from earlier work

Compound	Efficacy against liver flukes by life cycle stage (liver flukes)	Loss in activity after storage [1]	Physical stability of the solution after storage [1]	Solubility [2]
CCCSc1ccc2nc(NC(=O)OC)[nH]c2c1 [Albendazole]	only effective against adult flukes	–	–	–
Abamectin	–	no loss in activity	–	–
CSc1nc2cc(Cl)c(Oc3cccc(Cl)c3Cl)cc2[nH]1 [triclabendazole, 5-Chloro-6-(2,3-dichlorophenoxy)-2-methylthio-1H-benzimidazole]	highly effective against liver flukes at all stages of their life cycle	no loss in activity	remained in solution	highly insoluble
